Measured values published in US11286268B1, “EIF4E-inhibiting compounds and methods” (EFFECTOR THERAPEUTICS, INC., priority 2019, dated 2022).
Like-named read-outs stand apart in the source and are kept apart here.

Biological target: recombinant eIF4E (Homo sapiens (Human), UniProt P06730)
Assay: Fluorescence polarization competition assay for eIF4E binding potency
Procedure, shortened: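 IC50 values reflect 50% displacement of 20 nM EDA-m7GDP-ATTO-550 from 75 nM eIF4E, measured by fluorescence polarization after 30 min at room temperature. Buffer: 20 mM Tris pH 7.5, 100 mM NaCl, 1 mM DTT, 0.02% Tween-20; 1% DMSO.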

[1] = fluorescence polarization competition, 75 nM recombinant eIF4E, 20 nM EDA-m7GDP-ATTO-550, IC50 class, read-out: elF4E FP
[2] = inhibition of eIF4E/EDA-m7GDP-ATTO-550 binding by 50%, Table 4B calculated values, read-out: IC50
[3] = inhibition of eIF4E/EDA-m7GDP-ATTO-550 binding, calculated IC50 values, Table 4B, read-out: IC50

Chain of recombinant eIF4E (P06730 whole entry): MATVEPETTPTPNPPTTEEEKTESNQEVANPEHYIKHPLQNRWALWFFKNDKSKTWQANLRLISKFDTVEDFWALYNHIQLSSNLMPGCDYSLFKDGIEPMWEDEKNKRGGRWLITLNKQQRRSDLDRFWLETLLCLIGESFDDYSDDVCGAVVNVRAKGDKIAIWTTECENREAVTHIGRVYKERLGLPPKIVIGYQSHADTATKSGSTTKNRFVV

## Cc1cc(-c2cc(Cl)ccc2OCCn2c(C)nc3cc(C(F)(F)F)c(CN(C)C)c(C#N)c3c2=O)c2sc(C)c(C(=O)O)c2n1 [compound 670]
[1]
  IC50: < 50 nM
[2]
  IC50: 18 nM

## Cc1cc(-c2cc(Cl)ccc2OCCn2c(C)nc3cc(C(F)(F)F)c(CN4CCN(C)CC4)c(C#N)c3c2=O)c2scc(C(=O)O)c2n1 [compound 485]
[1]
  IC50: < 50 nM
[2]
  IC50: 8.59 nM

## N#Cc1ncc(CCOc2ccc(Cl)cc2-c2cccc(C(=O)O)c2)c2c(=O)[nH]c(NCC(F)(F)F)nc12 [compound 177]
[1]
  IC50: < 50 nM
[2]
  IC50: 26.8 nM

## Cc1ccc(C(=O)O)c2nccc(-c3cc(Cl)ccc3OCCn3cnc4cncc(C#N)c4c3=O)c12 [compound 45]
[1]
  IC50: > 1000 nM
[2]
  IC50: 2890 nM

## Cc1nc2cc(C(F)(F)F)cc(C#N)c2c(=O)n1CCOc1ccc(Cl)cc1-c1cnnc2c(C(=O)O)csc12 [compound 314]
[1]
  IC50: < 50 nM
[2]
  IC50: 42.8 nM

## Cc1cc(-c2cc(Cl)ccc2OCCn2c(C)nc3cc(Cl)c(N(C)C)c(C#N)c3c2=O)c2scc(C(=O)O)c2n1 [compound 696]
[1]
  IC50: < 50 nM
[2]
  IC50: 8.94 nM

## Cc1cc(-c2cc(Cl)ccc2OCCn2c(C)nc3cc(C(F)(F)F)c(-c4cnc(C)c(F)c4)c(C#N)c3c2=O)c2scc(C(=O)O)c2n1 [compound 1383]
[3]
  IC50: 5.03 nM

## CCN(Cc1ccccc1)S(=O)(=O)c1ccc2nc(C)n(CCOc3ccc(Cl)cc3-c3ccnc4c(C(=O)O)csc34)c(=O)c2c1C#N [compound 253]
[1]
  IC50: < 50 nM
[2]
  IC50: 46 nM

## Cc1cc(-c2cc(Cl)ccc2OCCn2c(C)nc3cc(C(F)(F)F)c(-c4cc(F)cnc4C)c(C#N)c3c2=O)c2scc(C(=O)OCCN3CCCC3)c2n1 [compound 1081]
[1]
  IC50: > 1000 nM
[2]
  IC50: 1040 nM

## Cc1cc(-c2cc(Cl)ccc2OCCn2c(C)nc3cc(C(F)(F)F)c[n+]([O-])c3c2=O)c2scc(C(=O)O)c2n1 [compound 1007]
[1]
  IC50: < 50 nM
[2]
  IC50: 48.2 nM

## Cc1nc2cnc(N(C)C3CCN(C4CC(F)(F)C4)CC3)c(C#N)c2c(=O)n1CC#Cc1ccc(Cl)cc1-c1ccnc2c(C(=O)NS(=O)(=O)c3cccnc3)csc12 [compound 1110]
[1]
  IC50: < 50 nM
[2]
  IC50: 7.2 nM

## Cc1nc2cccc(C#N)c2c(=O)n1CCOc1ccc(Cl)cc1-c1ccnc2c(C(=O)O)csc12 [compound 254]
[1]
  IC50: < 50 nM
[2]
  IC50: 20.4 nM

## Cc1nc2cc(C(F)(F)F)c(Cl)c(C#N)c2c(=O)n1CCOc1ccc(Cl)cc1-c1ccnc2c(C(=O)NS(C)(=O)=O)csc12 [compound 519]
[1]
  IC50: < 50 nM
[2]
  IC50: 37.8 nM

## CCc1cc(-c2cc(Cl)ccc2OCCn2c(C)nc3cc(C(F)(F)F)c(CC4CN(C)C4)c(C#N)c3c2=O)c2scc(C(=O)O)c2n1 [compound 1394]
[3]
  IC50: 4.74 nM

## Cc1cc(-c2cc(Cl)ccc2OCCn2c(C)nc3nc(C(F)(F)F)c(N4CCN(C)CC4)cc3c2=O)c2scc(C(=O)O)c2n1 [compound 849]
[1]
  IC50: < 50 nM
[2]
  IC50: 14.5 nM

## Cc1cc(-c2cc(Cl)ccc2OCCn2c(C)nc3cc(C(F)(F)F)c(OCCN4CCNCC4)c(C#N)c3c2=O)c2sc(C)c(C(=O)O)c2n1 [compound 1392]
[3]
  IC50: 26.5 nM

## Cc1cc(-c2cc(Cl)ccc2OCCn2c(C)nc3cnc(OC(F)F)c(C#N)c3c2=O)c2scc(C(=O)O)c2n1 [compound 602]
[1]
  IC50: < 50 nM
[2]
  IC50: 10.2 nM

## Cc1cc(-c2cc(Cl)ccc2OCCn2c(C)nc3cc(C(F)(F)F)c(CC(=O)N(C)C)c(C#N)c3c2=O)c2scc(C(=O)O)c2n1 [compound 909]
[1]
  IC50: < 50 nM
[2]
  IC50: 13.2 nM

## C#Cc1c(-c2cc(Cl)ccc2OCCn2c(C(F)F)nc3cccc(C#N)c3c2=O)csc1C(=O)O [compound 2034]
[3]
  IC50: 6.2 nM

## Cc1nc2cnc(N(C)C3CCN(C4(C)CC4)CC3)c(C#N)c2c(=O)n1CC#Cc1ccc(Cl)cc1-c1ccnc2c(C(=O)O)csc12 [compound 1524]
[3]
  IC50: 12.5 nM

## Cc1nc2cnc(N(C)[C@H]3CC[C@H](N(C)CCF)CC3)c(C#N)c2c(=O)n1CC#Cc1ccc(Cl)cc1-c1ccnc2c(C(=O)O)csc12 [compound 1229]
[1]
  IC50: < 50 nM
[3]
  IC50: 10.7 nM

## Cc1nc2ccc(Cl)c(C#N)c2c(=O)n1CCOc1ccc(Cl)cc1-c1cccc(C(=O)O)c1 [compound 141]
[1]
  IC50: < 50 nM
[2]
  IC50: 44.2 nM

## CSc1ncc(-c2cc(Cl)ccc2OCCn2cnc3cnc(C#N)cc3c2=O)nc1C(=O)O [compound 98]
[1]
  IC50: 50 to 1000 nM
[2]
  IC50: 564 nM

## Cc1nc2cnc(N3CCN(CC(F)(F)F)CC3)c(C#N)c2c(=O)n1CCOc1ccc(Cl)cc1-c1ccnc2c(C(=O)O)csc12 [compound 1304]
[3]
  IC50: 18.5 nM

## Cc1nc2cnc(N3CCC(O)C3)c(C#N)c2c(=O)n1CCOc1ccc(Cl)cc1-c1ccnc2ccsc12 (stereo not shown) [compound 1258]
[3]
  IC50: 61.5 nM

## CCN(CC)Cc1c(C(F)(F)F)cc2nc(C)n(CCOc3ccc(Cl)cc3-c3ccnc4c(C(=O)O)csc34)c(=O)c2c1C#N [compound 527]
[1]
  IC50: < 50 nM
[2]
  IC50: 24.8 nM

## Cc1cc(-c2cc(Cl)ccc2OCCn2c(C)nc3c(C(F)(F)F)cc(N4CCN(C)CC4)nc3c2=O)c2scc(C(=O)O)c2n1 [compound 677]
[1]
  IC50: < 50 nM
[2]
  IC50: 5.44 nM

## N#Cc1c(C(F)F)ccc2ncn(CCOc3ccc(Cl)cc3-c3cccc(C(=O)O)c3)c(=O)c12 [compound 28]
[1]
  IC50: 50 to 1000 nM
[2]
  IC50: 61.6 nM

## CCC(F)(F)CN1CCC(N(C)c2ncc3nc(C)n(CC#Cc4ccc(Cl)cc4-c4ccnc5c(C(=O)O)csc45)c(=O)c3c2C#N)CC1 [compound 1502]
[3]
  IC50: 26.2 nM

## Cc1nc2cnccc2c(=O)n1CCOc1ccc(Cl)cc1-c1cccc(P(=O)(O)O)c1 [150FC]
[2]
  IC50: 124 nM

## Cc1cc(-c2cc(Cl)ccc2OCCn2c(C)nc3cc(Cl)c(N4CCC(F)(F)C4)c(C#N)c3c2=O)c2scc(C(=O)O)c2n1 [compound 690]
[1]
  IC50: < 50 nM
[2]
  IC50: 5.95 nM

## Cc1nc2ccc3c(c2c(=O)n1CCOc1ccc(Cl)cc1-c1cccc(C(=O)O)c1)C(=O)N(C)C3 [compound 2011]
[3]
  IC50: 529 nM

## Cc1nc2cnc(N3CCN(C4CC4(C)C)CC3)c(C#N)c2c(=O)n1CCOc1ccc(Cl)cc1-c1ccnc2c(C(=O)O)csc12 (stereo not shown) [compound 1638]
[3]
  IC50: 38.8 nM

## Cc1nc2c(F)cc(C(F)F)c(C#N)c2c(=O)n1CC#Cc1ccc(Cl)cc1-c1ccnc2c(C(=O)O)csc12 [compound 557]
[1]
  IC50: < 50 nM
[2]
  IC50: 6.4 nM

## Cc1nc2cnc(N(C)C3CCN(CC(F)(F)F)CC3)c(C#N)c2c(=O)n1CC#Cc1ccc(Cl)cc1-c1ccnc2c(C(=O)NS(=O)(=O)Cc3ccccn3)csc12 [compound 1673]
[3]
  IC50: 7.22 nM

## Cc1cc(-c2cc(Cl)ccc2OCCn2c(C)nc3cc(C(F)(F)F)c(CN4CCN(C(C)(C)C)CC4)c(C#N)c3c2=O)c2scc(C(=O)O)c2n1 [compound 738]
[1]
  IC50: < 50 nM
[2]
  IC50: 19.3 nM

## Cc1cc(-c2cc(Cl)ccc2OCCn2c(C)nc3cc(C(F)(F)F)c(C(C)(C)O)nc3c2=O)c2scc(C(=O)O)c2n1 [compound 938]
[1]
  IC50: < 50 nM
[2]
  IC50: 2.44 nM

## Cc1nc2cnc(N(C)C3CCN(CCOC(F)F)CC3)c(C#N)c2c(=O)n1CCOc1ccc(Cl)cc1-c1ccnc2c(C(=O)O)csc12 [compound 1513]
[3]
  IC50: 13.4 nM

## Cc1nc2cc(C(F)(F)F)cc(C#N)c2c(=O)n1CCOc1ccc(C#N)nc1-c1ccnc2c(C(=O)O)csc12 [compound 292]
[1]
  IC50: 50 to 1000 nM
[2]
  IC50: 203 nM

## O=C(O)c1cccc(-c2cc(Cl)ccc2OCCn2cnc3cccnc3c2=O)c1 [compound 21]
[1]
  IC50: 50 to 1000 nM
[2]
  IC50: 575 nM

## CCc1cc(-c2cc(Cl)ccc2OCCn2c(C)nc3cc(CN(C)C)c(OC(F)F)c(C#N)c3c2=O)c2scc(C(=O)O)c2n1 [compound 896]
[2]
  IC50: 1.57 nM

## Cc1cc(-c2cc(Cl)ccc2OCCn2c(C)nc3cc(Cl)c(C4CC4)c(C#N)c3c2=O)c2scc(C(=O)O)c2n1 [compound 1050]
[1]
  IC50: < 50 nM
[2]
  IC50: 19.5 nM

## Cc1nc2cc(C(F)(F)F)c(CN3CCC(F)(F)CC3)c(C#N)c2c(=O)n1CCOc1ccc(Cl)cc1-c1ccnc2c(C(=O)O)csc12 [compound 522]
[1]
  IC50: < 50 nM
[2]
  IC50: 22.7 nM

## Cc1nc2cnc(N3CCN(CCCF)CC3)c(C#N)c2c(=O)n1CC#Cc1ccc(Cl)cc1-c1ccnc2c(C(=O)O)csc12 [compound 1457]
[3]
  IC50: 18 nM

## Cc1cc(-c2cc(Cl)ccc2OCCn2c(C)nc3cc(Cl)c(Cl)c(C#N)c3c2=O)c2scc(C(=O)O)c2n1 [compound 582]
[1]
  IC50: < 50 nM
[2]
  IC50: 12.7 nM

## Cc1nc2cnc(C3=CCC(N(C)CC(F)F)CC3)c(C#N)c2c(=O)n1CC#Cc1ccc(Cl)cc1-c1ccnc2c(C(=O)O)csc12 (stereo not shown) [compound 1573]
[3]
  IC50: 22.2 nM

## Cc1nc2ccc(S(=O)(=O)N(C)Cc3ccccc3)c(C#N)c2c(=O)n1CCOc1ccc(Cl)cc1-c1ccnc2c(C(=O)O)csc12 [compound 283]
[1]
  IC50: < 50 nM
[2]
  IC50: 40.6 nM

## CCN(c1ncc2nc(C)n(CC#Cc3ccc(Cl)cc3-c3ccnc4c(C(=O)NS(=O)(=O)c5ccccn5)csc34)c(=O)c2c1C#N)C1CCN(C2CC(F)(F)C2)CC1 [compound 1840]
[3]
  IC50: 26.4 nM

## Cc1cc(-c2cc(Cl)ccc2OCCn2c(C)nc3cc(C(F)(F)F)c(-c4ccccc4)nc3c2=O)c2scc(C(=O)O)c2n1 [compound 467]
[1]
  IC50: < 50 nM

## O=C(O)c1cccc(-c2cc(Cl)ccc2OCCn2cnc3cccc(F)c3c2=O)c1 [compound 4]
[1]
  IC50: > 1000 nM
[2]
  IC50: 3520 nM

## Cc1cc(-c2cc(Cl)ccc2OCCn2c(C)nc3c(C)nc(C(F)(F)F)c(C#N)c3c2=O)c2scc(C(=O)O)c2n1 [compound 730]
[1]
  IC50: 50 to 1000 nM
[2]
  IC50: 51 nM

## O=C(O)c1csc2c(-c3cc(Cl)ccc3OCCn3c(=O)c4ccccc4c4cnncc43)ccnc12 [compound 658]
[1]
  IC50: > 1000 nM
[2]
  IC50: 1290 nM

## Cc1cc(-c2cc(Cl)ccc2OCCn2c(C)nc3cc(C(F)(F)F)c(-c4scnc4C)nc3c2=O)c2scc(C(=O)O)c2n1 [compound 939]
[1]
  IC50: < 50 nM
[2]
  IC50: 12.1 nM
